# In PubChem BioAssay AID1919003 (Molecular Pharmacology Branch, DTP, NCI, 2023):
# System: 786-0 complex spheroids with HUVEC/MSC, growth % test/control
# Experiment: Anticancer human tumor 786-0 cell line growth inhibition [AhR];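 note: compound exposure lasted seven days before the read-out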
# Conditions: for IC50: curve of first compound; for viability, T/C: stronger effect = lower value
# Outline: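 Complex tumor spheroids co-cultured with HUVEC and human MSC stroma; AhR antagonists tested in combination with standard-of-care and investigational agents. Top concentration at or near clinical Cmax (else 10 microM), half-log dilutions; growth expressed as percent test/control.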
# [1] = second compound 0.1 µM, first compound 0.0316 µM
# [2] = second compound 0.1 µM, first compound 0.1 µM
# [3] = second compound 0.1 µM, first compound 0.316 µM
# [4] = second compound 0.1 µM, first compound 1 µM
# [5] = second compound 0.1 µM, first compound 3.16 µM
# [6] = second compound 0.1 µM, first compound 10 µM
# [7] = second compound 0.316 µM, first compound 0.0316 µM
# [8] = second compound 0.316 µM, first compound 0.1 µM
# [9] = second compound 0.316 µM, first compound 0.316 µM
# [10] = second compound 0.316 µM, first compound 1 µM
# [11] = second compound 0.316 µM, first compound 3.16 µM
# [12] = second compound 0.316 µM, first compound 10 µM
# [13] = second compound 1 µM, first compound 0.0316 µM
# [14] = second compound 1 µM, first compound 0.1 µM
# [15] = second compound 1 µM, first compound 0.316 µM
# [16] = second compound 1 µM, first compound 1 µM
# [17] = second compound 1 µM, first compound 3.16 µM
# [18] = second compound 1 µM, first compound 10 µM
# [19] = second compound 3.16 µM, first compound 0.0316 µM
# [20] = second compound 3.16 µM, first compound 0.1 µM
# [21] = second compound 3.16 µM, first compound 0.316 µM
# [22] = second compound 3.16 µM, first compound 1 µM
# [23] = second compound 3.16 µM, first compound 3.16 µM
# [24] = second compound 3.16 µM, first compound 10 µM
# [25] = second compound 10 µM, first compound 0.0316 µM
# [26] = second compound 10 µM, first compound 0.1 µM
# [27] = second compound 10 µM, first compound 0.316 µM
# [28] = second compound 10 µM, first compound 1 µM
# [29] = second compound 10 µM, first compound 3.16 µM
# [30] = second compound 10 µM, first compound 10 µM
compound,measurement,setting,value
CC(C)c1c(-c2ccccc2)nc2c(C#N)c[nH]n2c1=O + Cc1cncc(-c2nc(NCCc3c[nH]c4ccccc34)c3ncn(C(C)C)c3n2)c1,IC50,second compound 0.1 µM,> 10000 nM
same,IC50,second compound 0.316 µM,> 10000 nM
same,IC50,second compound 1 µM,> 10000 nM
same,IC50,second compound 3.16 µM,> 10000 nM
same,IC50,second compound 10 µM,< 31.6 nM
same,"viability, T/C",[1],115%
same,"viability, T/C",[2],121%
same,"viability, T/C",[3],112%
same,"viability, T/C",[4],123%
same,"viability, T/C",[5],113%
same,"viability, T/C",[6],132%
same,"viability, T/C",[7],120%
same,"viability, T/C",[8],118%
same,"viability, T/C",[9],118%
same,"viability, T/C",[10],124%
same,"viability, T/C",[11],115%
same,"viability, T/C",[12],104%
same,"viability, T/C",[13],114%
same,"viability, T/C",[14],107%
same,"viability, T/C",[15],114%
same,"viability, T/C",[16],108%
same,"viability, T/C",[17],116%
same,"viability, T/C",[18],112%
same,"viability, T/C",[19],82.9%
same,"viability, T/C",[20],71.8%
same,"viability, T/C",[21],78.2%
same,"viability, T/C",[22],78%
same,"viability, T/C",[23],67.2%
same,"viability, T/C",[24],76.1%
same,"viability, T/C",[25],7.79%
same,"viability, T/C",[26],5.72%
same,"viability, T/C",[27],9.94%
same,"viability, T/C",[28],8.21%
same,"viability, T/C",[29],8.12%
same,"viability, T/C",[30],9.28%
CC1COCCN1c1cc(-c2ccnn2C)c2ccnc(-c3ccn[nH]3)c2n1 (stereo not given) + Cc1cncc(-c2nc(NCCc3c[nH]c4ccccc34)c3ncn(C(C)C)c3n2)c1,IC50,second compound 0.1 µM,192 nM
same,IC50,second compound 0.316 µM,192 nM
same,IC50,second compound 1 µM,150 nM
same,IC50,second compound 3.16 µM,49.8 nM
same,IC50,second compound 10 µM,< 3.16 nM
same,"viability, T/C","second compound 0.1 µM, first compound 0.00316 µM",106%
same,"viability, T/C","second compound 0.1 µM, first compound 0.01 µM",114%
same,"viability, T/C",[1],108%
same,"viability, T/C",[2],89.9%
same,"viability, T/C",[3],19.7%
same,"viability, T/C",[4],6.85%
same,"viability, T/C","second compound 0.316 µM, first compound 0.00316 µM",119%
same,"viability, T/C","second compound 0.316 µM, first compound 0.01 µM",118%
same,"viability, T/C",[7],116%
same,"viability, T/C",[8],88.4%
same,"viability, T/C",[9],20.5%
same,"viability, T/C",[10],7.37%
same,"viability, T/C","second compound 1 µM, first compound 0.00316 µM",106%
same,"viability, T/C","second compound 1 µM, first compound 0.01 µM",104%
same,"viability, T/C",[13],100%
same,"viability, T/C",[14],69%
same,"viability, T/C",[15],15%
same,"viability, T/C",[16],5.51%
same,"viability, T/C","second compound 3.16 µM, first compound 0.00316 µM",74.9%
same,"viability, T/C","second compound 3.16 µM, first compound 0.01 µM",74.9%
same,"viability, T/C",[19],65%
same,"viability, T/C",[20],26.9%
same,"viability, T/C",[21],4.19%
same,"viability, T/C",[22],2.86%
same,"viability, T/C","second compound 10 µM, first compound 0.00316 µM",8.14%
same,"viability, T/C","second compound 10 µM, first compound 0.01 µM",10.1%
same,"viability, T/C",[25],7.76%
same,"viability, T/C",[26],1.45%
same,"viability, T/C",[27],0.29%
same,"viability, T/C",[28],0.46%
COc1ccc([C@@H](O)c2cc(-c3ncnc4cc(N5CCOCC5)ccc34)c(F)cc2Cl)nn1 + Cc1cncc(-c2nc(NCCc3c[nH]c4ccccc34)c3ncn(C(C)C)c3n2)c1,IC50,second compound 0.1 µM,> 10000 nM
same,IC50,second compound 0.316 µM,> 10000 nM
same,IC50,second compound 1 µM,> 10000 nM
same,IC50,second compound 3.16 µM,> 10000 nM
same,IC50,second compound 10 µM,< 31.6 nM
same,"viability, T/C",[1],103%
same,"viability, T/C",[2],111%
same,"viability, T/C",[3],111%
same,"viability, T/C",[4],112%
same,"viability, T/C",[5],109%
same,"viability, T/C",[6],89.9%
same,"viability, T/C",[7],112%
same,"viability, T/C",[8],111%
same,"viability, T/C",[9],114%
same,"viability, T/C",[10],120%
same,"viability, T/C",[11],103%
same,"viability, T/C",[12],95.4%
same,"viability, T/C",[13],107%
same,"viability, T/C",[14],103%
same,"viability, T/C",[15],96.4%
same,"viability, T/C",[16],104%
same,"viability, T/C",[17],103%
same,"viability, T/C",[18],84.8%
same,"viability, T/C",[19],73%
same,"viability, T/C",[20],73.3%
same,"viability, T/C",[21],66.4%
same,"viability, T/C",[22],62.7%
same,"viability, T/C",[23],61.2%
same,"viability, T/C",[24],61.5%
same,"viability, T/C",[25],6.44%
same,"viability, T/C",[26],5.3%
same,"viability, T/C",[27],8.33%
same,"viability, T/C",[28],5.44%
same,"viability, T/C",[29],5.99%
same,"viability, T/C",[30],9.73%
O=C(C=Cn1cnc(-c2cc(C(F)(F)F)cc(C(F)(F)F)c2)n1)NNc1cnccn1 + Cc1cncc(-c2nc(NCCc3c[nH]c4ccccc34)c3ncn(C(C)C)c3n2)c1,IC50,second compound 0.1 µM,736 nM
same,IC50,second compound 0.316 µM,619 nM
same,IC50,second compound 1 µM,562 nM
same,IC50,second compound 3.16 µM,412 nM
same,IC50,second compound 10 µM,< 9.49 nM
same,"viability, T/C","second compound 0.1 µM, first compound 0.00949 µM",118%
same,"viability, T/C","second compound 0.1 µM, first compound 0.03 µM",125%
same,"viability, T/C","second compound 0.1 µM, first compound 0.0949 µM",134%
same,"viability, T/C","second compound 0.1 µM, first compound 0.3 µM",75.5%
same,"viability, T/C","second compound 0.1 µM, first compound 0.949 µM",50.2%
same,"viability, T/C","second compound 0.1 µM, first compound 3 µM",20.5%
same,"viability, T/C","second compound 0.316 µM, first compound 0.00949 µM",130%
same,"viability, T/C","second compound 0.316 µM, first compound 0.03 µM",142%
same,"viability, T/C","second compound 0.316 µM, first compound 0.0949 µM",151%
same,"viability, T/C","second compound 0.316 µM, first compound 0.3 µM",76%
same,"viability, T/C","second compound 0.316 µM, first compound 0.949 µM",49.4%
same,"viability, T/C","second compound 0.316 µM, first compound 3 µM",19.9%
same,"viability, T/C","second compound 1 µM, first compound 0.00949 µM",127%
same,"viability, T/C","second compound 1 µM, first compound 0.03 µM",131%
same,"viability, T/C","second compound 1 µM, first compound 0.0949 µM",129%
same,"viability, T/C","second compound 1 µM, first compound 0.3 µM",67.5%
same,"viability, T/C","second compound 1 µM, first compound 0.949 µM",44.9%
same,"viability, T/C","second compound 1 µM, first compound 3 µM",19.9%
same,"viability, T/C","second compound 3.16 µM, first compound 0.00949 µM",116%
same,"viability, T/C","second compound 3.16 µM, first compound 0.03 µM",146%
same,"viability, T/C","second compound 3.16 µM, first compound 0.0949 µM",131%
same,"viability, T/C","second compound 3.16 µM, first compound 0.3 µM",57.6%
same,"viability, T/C","second compound 3.16 µM, first compound 0.949 µM",37.6%
same,"viability, T/C","second compound 3.16 µM, first compound 3 µM",21.9%
same,"viability, T/C","second compound 10 µM, first compound 0.00949 µM",12.7%
same,"viability, T/C","second compound 10 µM, first compound 0.03 µM",18.3%
same,"viability, T/C","second compound 10 µM, first compound 0.0949 µM",11.7%
same,"viability, T/C","second compound 10 µM, first compound 0.3 µM",4.08%
same,"viability, T/C","second compound 10 µM, first compound 0.949 µM",5.46%
same,"viability, T/C","second compound 10 µM, first compound 3 µM",4.69%
